ChEMBL document CHEMBL3217717, “Synthesis and antiproliferative activity of novel erythromycin derivatives” (Medchemcomm, 2010)
pIC50: −log10 of the molar value.

Key:
Type in all cases: functional, cell-based
[1] = Cytotoxicity against human SGC7901 cells assessed as growth inhibition after 48 hrs by MTT assay; details: SGC-7901, 48 h
[2] = system: KB; assay: Cytotoxicity against human KB cells assessed as growth inhibition after 48 hrs by MTT assay
[3] = Cytotoxicity against human HT1080 cells assessed as growth inhibition after 48 hrs by MTT assay; details: HT-1080, 48 h

CC[C@H]1OC(=O)[C@H](C)[C@@H](O)[C@H](C)[C@@H](O[C@@H]2O[C@H](C)C[C@H](N(C)CCN(C)[C@H]3C[C@@H](C)O[C@@H](O[C@@H]4[C@@H](C)[C@H](O)[C@@H](C)C(=O)O[C@H](CC)[C@@](C)(O)[C@H](O)[C@@H](C)[C@@H](O)[C@H](C)C[C@@]4(C)O)[C@@H]3O)[C@H]2O)[C@](C)(O)C[C@@H](C)[C@H](O)[C@H](C)[C@@H](O)[C@]1(C)O
pIC50 [1]: < 4.00 | pIC50 [2]: < 4.00 | pIC50 [3]: < 4.00

CCCCCCCCO/N=C1/[C@H](C)C[C@@](C)(O)[C@H](O[C@@H]2O[C@H](C)C[C@H](N(C)CCN(C)[C@H]3C[C@@H](C)O[C@@H](O[C@@H]4[C@@H](C)[C@H](O[C@H]5C[C@@](C)(OC)[C@@H](O)[C@H](C)O5)[C@@H](C)C(=O)O[C@H](CC)[C@@](C)(O)[C@H](O)[C@@H](C)/C(=N\OCCCCCCCC)[C@H](C)C[C@@]4(C)O)[C@@H]3O)[C@H]2O)[C@@H](C)[C@H](O[C@H]2C[C@@](C)(OC)[C@@H](O)[C@H](C)O2)[C@@H](C)C(=O)O[C@H](CC)[C@@](C)(O)[C@H](O)[C@H]1C
pIC50 [1]: < 4.00 | pIC50 [2]: < 4.00 | pIC50 [3]: < 4.00

CC[C@H]1OC(=O)[C@H](C)[C@@H](O)[C@H](C)[C@@H](O[C@@H]2O[C@H](C)C[C@H](N(C)C(=O)CN(C)[C@H]3C[C@@H](C)O[C@@H](O[C@@H]4[C@@H](C)[C@H](O[C@H]5C[C@@](C)(OC)[C@@H](O)[C@H](C)O5)[C@@H](C)C(=O)O[C@H](CC)[C@@](C)(O)[C@H](O)[C@@H](C)/C(=N\OCOCCOC)[C@H](C)C[C@@]4(C)O)[C@@H]3O)[C@H]2O)[C@](C)(OC)C[C@@H](C)C(=O)[C@H](C)[C@@H](O)[C@]1(C)O
pIC50 [1]: < 4.00 | pIC50 [2]: < 4.00 | pIC50 [3]: < 4.00

CC[C@H]1OC(=O)[C@H](C)[C@@H](O[C@H]2C[C@@](C)(OC)[C@@H](O)[C@H](C)O2)[C@H](C)[C@@H](O[C@@H]2O[C@H](C)C[C@H](N(C)C(=O)CN(C)[C@H]3C[C@@H](C)O[C@@H](O[C@@H]4[C@@H](C)[C@H](O[C@H]5C[C@@](C)(OC)[C@@H](O)[C@H](C)O5)[C@@H](C)C(=O)O[C@H](CC)[C@@](C)(O)[C@H](O)[C@@H](C)C(=O)[C@H](C)C[C@@]4(C)O)[C@@H]3O)[C@H]2O)[C@](C)(OC)C[C@@H](C)C(=O)[C@H](C)[C@@H](O)[C@]1(C)O
pIC50 [1]: 4.18 | pIC50 [2]: 4.56 | pIC50 [3]: < 4.00

CC[C@H]1OC(=O)[C@H](C)[C@@H](O[C@H]2C[C@@](C)(OC)[C@@H](O)[C@H](C)O2)[C@H](C)[C@@H](O[C@@H]2O[C@H](C)C[C@H](N(C)CCN(C)[C@H]3C[C@@H](C)O[C@@H](O[C@@H]4[C@@H](C)[C@H](O[C@H]5C[C@@](C)(OC)[C@@H](O)[C@H](C)O5)[C@@H](C)C(=O)O[C@H](CC)[C@@](C)(O)[C@H](O)[C@@H](C)/C(=N\OCOCCOC)[C@H](C)C[C@@]4(C)O)[C@@H]3O)[C@H]2O)[C@](C)(OC)C[C@@H](C)/C(=N/O)[C@H](C)[C@@H](O)[C@]1(C)O
pIC50 [1]: 4.66 | pIC50 [2]: 4.83 | pIC50 [3]: 5.20

CC[C@H]1OC(=O)[C@H](C)[C@@H](O)[C@H](C)[C@@H](O[C@@H]2O[C@H](C)C[C@H](N(C)CCN(C)[C@H]3C[C@@H](C)O[C@@H](O[C@@H]4[C@@H](C)[C@H](O[C@H]5C[C@@](C)(OC)[C@@H](O)[C@H](C)O5)[C@@H](C)C(=O)O[C@H](CC)[C@@](C)(O)[C@H](O)[C@@H](C)/C(=N\O)[C@H](C)C[C@@]4(C)OC)[C@@H]3O)[C@H]2O)[C@](C)(OC)C[C@@H](C)/C(=N/O)[C@H](C)[C@@H](O)[C@]1(C)O
pIC50 [1]: 4.90 | pIC50 [2]: 4.42 | pIC50 [3]: 4.37

CC[C@H]1OC(=O)[C@H](C)[C@@H](O[C@H]2C[C@@](C)(OC)[C@@H](O)[C@H](C)O2)[C@H](C)[C@@H](O[C@@H]2O[C@H](C)C[C@H](N(C)CCN(C)[C@H]3C[C@@H](C)O[C@@H](O[C@@H]4[C@@H](C)[C@H](O[C@H]5C[C@@](C)(OC)[C@@H](O)[C@H](C)O5)[C@@H](C)C(=O)O[C@H](CC)[C@@](C)(O)[C@H](O)[C@@H](C)C(=O)[C@H](C)C[C@@]4(C)O)[C@@H]3O)[C@H]2O)[C@](C)(O)C[C@@H](C)C(=O)[C@H](C)[C@@H](O)[C@]1(C)O
pIC50 [1]: 4.74 | pIC50 [2]: 4.43 | pIC50 [3]: < 4.00

CC[C@H]1OC(=O)[C@H](C)[C@@H](O[C@H]2C[C@@](C)(OC)[C@@H](O)[C@H](C)O2)[C@H](C)[C@@H](O[C@@H]2O[C@H](C)C[C@H](N(C)CC(=O)N(C)[C@H]3C[C@@H](C)O[C@@H](O[C@@H]4[C@@H](C)[C@H](O[C@H]5C[C@@](C)(OC)[C@@H](O)[C@H](C)O5)[C@@H](C)C(=O)O[C@H](CC)[C@@](C)(O)[C@H](O)[C@@H](C)C(=O)[C@H](C)C[C@@]4(C)O)[C@@H]3O)[C@H]2O)[C@](C)(OC)C[C@@H](C)C(=O)[C@H](C)[C@@H](O)[C@]1(C)O
pIC50 [1]: < 4.00 | pIC50 [2]: < 4.00 | pIC50 [3]: < 4.00

CC[C@H]1OC(=O)[C@H](C)[C@@H](O[C@H]2C[C@@](C)(OC)[C@@H](O)[C@H](C)O2)[C@H](C)[C@@H](O[C@@H]2O[C@H](C)C[C@H](N(C)CCN(C)[C@H]3C[C@@H](C)O[C@@H](O[C@@H]4[C@@H](C)[C@H](O[C@H]5C[C@@](C)(OC)[C@@H](O)[C@H](C)O5)[C@@H](C)C(=O)O[C@H](CC)[C@@](C)(O)[C@H](O)[C@@H](C)/C(=N\OCc5ccccc5)[C@H](C)C[C@@]4(C)O)[C@@H]3O)[C@H]2O)[C@](C)(O)C[C@@H](C)/C(=N/OCc2ccccc2)[C@H](C)[C@@H](O)[C@]1(C)O
pIC50 [1]: < 4.00 | pIC50 [2]: < 4.00 | pIC50 [3]: < 4.00

CC[C@H]1OC(=O)[C@H](C)[C@@H](O)[C@H](C)[C@@H](O[C@@H]2O[C@H](C)C[C@H](N(C)CCN(C)[C@H]3C[C@@H](C)O[C@@H](O[C@@H]4[C@@H](C)[C@H](O)[C@@H](C)C(=O)O[C@H](CC)[C@@](C)(O)[C@H](O)[C@@H](C)/C(=N\OCOCCOC)[C@H](C)C[C@@]4(C)O)[C@@H]3O)[C@H]2O)[C@](C)(O)C[C@@H](C)/C(=N/OCOCCOC)[C@H](C)[C@@H](O)[C@]1(C)O
pIC50 [1]: < 4.00 | pIC50 [2]: < 4.00 | pIC50 [3]: < 4.00

CC[C@H]1OC(=O)[C@H](C)[C@@H](O[C@H]2C[C@@](C)(OC)[C@@H](O)[C@H](C)O2)[C@H](C)[C@@H](O[C@@H]2O[C@H](C)C[C@H](N(C)CCN(C)[C@H]3C[C@@H](C)O[C@@H](O[C@@H]4[C@@H](C)[C@H](O[C@H]5C[C@@](C)(OC)[C@@H](O)[C@H](C)O5)[C@@H](C)C(=O)O[C@H](CC)[C@@](C)(O)[C@H](O)[C@@H](C)/C(=N\OCc5ccccc5)[C@H](C)C[C@@]4(C)OC)[C@@H]3O)[C@H]2O)[C@](C)(OC)C[C@@H](C)/C(=N/OCc2ccccc2)[C@H](C)[C@@H](O)[C@]1(C)O
pIC50 [1]: 4.58 | pIC50 [2]: 5.12 | pIC50 [3]: 5.02

CC[C@H]1OC(=O)[C@H](C)[C@@H](O[C@H]2C[C@@](C)(OC)[C@@H](O)[C@H](C)O2)[C@H](C)[C@@H](O[C@@H]2O[C@H](C)C[C@H](N(C)CC(=O)N(C)[C@H]3C[C@@H](C)O[C@@H](O[C@@H]4[C@@H](C)[C@H](O)[C@@H](C)C(=O)O[C@H](CC)[C@@](C)(O)[C@H](O)[C@@H](C)/C(=N\OCOCCOC)[C@H](C)C[C@@]4(C)O)[C@@H]3O)[C@H]2O)[C@](C)(OC)C[C@@H](C)C(=O)[C@H](C)[C@@H](O)[C@]1(C)O
pIC50 [1]: < 4.00 | pIC50 [2]: < 4.00 | pIC50 [3]: < 4.00

CC[C@H]1OC(=O)[C@H](C)[C@@H](O[C@H]2C[C@@](C)(OC)[C@@H](O)[C@H](C)O2)[C@H](C)[C@@H](O[C@@H]2O[C@H](C)C[C@H](N(C)CCN(C)[C@H]3C[C@@H](C)O[C@@H](O[C@@H]4[C@@H](C)[C@H](O[C@H]5C[C@@](C)(OC)[C@@H](O)[C@H](C)O5)[C@@H](C)C(=O)O[C@H](CC)[C@@](C)(O)[C@H](O)[C@@H](C)/C(=N\OCc5cc(OC)c(OC)c(OC)c5)[C@H](C)C[C@@]4(C)O)[C@@H]3O)[C@H]2O)[C@](C)(O)C[C@@H](C)/C(=N/OCc2cc(OC)c(OC)c(OC)c2)[C@H](C)[C@@H](O)[C@]1(C)O
pIC50 [1]: 4.55 | pIC50 [2]: 5.08 | pIC50 [3]: 5.41

CC[C@H]1OC(=O)[C@H](C)[C@@H](O[C@H]2C[C@@](C)(OC)[C@@H](O)[C@H](C)O2)[C@H](C)[C@@H](O[C@@H]2O[C@H](C)C[C@H](N(C)CCN(C)[C@H]3C[C@@H](C)O[C@@H](O[C@@H]4[C@@H](C)[C@H](O[C@H]5C[C@@](C)(OC)[C@@H](O)[C@H](C)O5)[C@@H](C)C(=O)O[C@H](CC)[C@@](C)(O)[C@H](O)[C@@H](C)C(=O)[C@H](C)C[C@@]4(C)OC)[C@@H]3O)[C@H]2O)[C@](C)(OC)C[C@@H](C)C(=O)[C@H](C)[C@@H](O)[C@]1(C)O
pIC50 [1]: 4.70 | pIC50 [2]: 4.75 | pIC50 [3]: 5.09

C=CCO/N=C1/[C@H](C)C[C@@](C)(O)[C@H](O[C@@H]2O[C@H](C)C[C@H](N(C)CCN(C)[C@H]3C[C@@H](C)O[C@@H](O[C@@H]4[C@@H](C)[C@H](O[C@H]5C[C@@](C)(OC)[C@@H](O)[C@H](C)O5)[C@@H](C)C(=O)O[C@H](CC)[C@@](C)(O)[C@H](O)[C@@H](C)/C(=N\OCC=C)[C@H](C)C[C@@]4(C)O)[C@@H]3O)[C@H]2O)[C@@H](C)[C@H](O[C@H]2C[C@@](C)(OC)[C@@H](O)[C@H](C)O2)[C@@H](C)C(=O)O[C@H](CC)[C@@](C)(O)[C@H](O)[C@H]1C
pIC50 [1]: < 4.00 | pIC50 [2]: 4.76 | pIC50 [3]: 4.56
